Assay results published in ChEMBL document CHEMBL6153147 (J Med Chem, 2025).

How the values were obtained:
[1] = target: T1, Serine/threonine-protein kinase PLK2 (Homo sapiens, UniProt Q9NYY3); test: Inhibition of human PLK2 using ATF2 as substrate incubated for 40 mins in presence of [gamma-33P]ATP/Mg acetate by scintillation counting analysis
Target sequence in this assay (Q9NYY3 whole entry): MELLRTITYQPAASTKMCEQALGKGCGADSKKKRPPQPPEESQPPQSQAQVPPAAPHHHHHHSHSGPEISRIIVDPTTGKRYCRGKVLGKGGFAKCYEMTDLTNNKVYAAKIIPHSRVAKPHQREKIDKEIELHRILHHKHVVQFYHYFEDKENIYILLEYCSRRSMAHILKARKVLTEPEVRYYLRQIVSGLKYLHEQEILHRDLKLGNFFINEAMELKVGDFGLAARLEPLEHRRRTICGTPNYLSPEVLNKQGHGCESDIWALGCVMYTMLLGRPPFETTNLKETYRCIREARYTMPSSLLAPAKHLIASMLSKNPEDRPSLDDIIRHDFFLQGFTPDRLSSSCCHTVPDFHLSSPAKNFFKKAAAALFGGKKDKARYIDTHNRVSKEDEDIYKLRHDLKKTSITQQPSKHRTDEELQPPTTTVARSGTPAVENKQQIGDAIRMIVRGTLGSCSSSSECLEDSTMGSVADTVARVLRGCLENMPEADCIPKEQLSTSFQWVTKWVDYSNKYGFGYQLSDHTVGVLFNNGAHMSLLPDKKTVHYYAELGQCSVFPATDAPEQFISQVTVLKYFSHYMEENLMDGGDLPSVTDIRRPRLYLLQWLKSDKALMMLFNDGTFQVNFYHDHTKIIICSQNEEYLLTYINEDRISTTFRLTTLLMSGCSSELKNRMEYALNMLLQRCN

[2] = target: Serine/threonine-protein kinase PLK1 (Homo sapiens, UniProt P53350); test: Inhibition of human PLK1 at 10 uM by kinome selectivity profiling analysis relative to control
[3] = target: T1, Serine/threonine-protein kinase PLK2; test: Inhibition of human PLK2 assessed as residual activity at 10 uM by kinome selectivity profiling analysis relative to control
Target sequence in this assay (Q9NYY3 whole entry, looked up): as the sequence (Q9NYY3 whole entry) above

[4] = target: Serine/threonine-protein kinase PLK3 (Homo sapiens, UniProt Q9H4B4); test: Inhibition of human PLK3 assessed as residual activity at 10 uM by kinome selectivity profiling analysis relative to control
[5] = target: Serine/threonine-protein kinase MRCK alpha (Homo sapiens) (UniProt Q5VT25); test: Inhibition of human MRCK-alpha assessed as residual activity at 10 uM by kinome selectivity profiling analysis relative to control
[6] = target: Glycogen synthase kinase-3 beta (Homo sapiens) (UniProt P49841); test: Inhibition of human GSK-3beta assessed as residual activity at 10 uM by kinome selectivity profiling analysis relative to control
Homo sapiens [7] = species: Homo sapiens; test: Inhibition of human ABL assessed as residual activity at 10 uM by kinome selectivity profiling analysis relative to control
[8] = target: Cyclin-dependent kinase 6 (Homo sapiens) (UniProt Q00534); test: Inhibition of human CDK6 assessed as residual activity at 10 uM by kinome selectivity profiling analysis relative to control
[9] = target: TRAF2 and NCK-interacting protein kinase (Homo sapiens) (UniProt Q9UKE5); test: Inhibition of human TNIK assessed as residual activity at 10 uM by kinome selectivity profiling analysis relative to control
[10] = target: Calcium/calmodulin-dependent protein kinase kinase 1 (Homo sapiens) (UniProt Q8N5S9); test: Inhibition of human CaMKK1 assessed as residual activity at 10 uM by kinome selectivity profiling analysis relative to control
[11] = target: Dual specificity protein kinase CLK2 (Homo sapiens) (UniProt P49760); test: Inhibition of human CLK2 assessed as residual activity at 10 uM by kinome selectivity profiling analysis relative to control
Homo sapiens [12] = species: Homo sapiens; test: Inhibition of human HRI assessed as residual activity at 10 uM by kinome selectivity profiling analysis relative to control
[13] = Stability of compound in rat hepatocytes; assay type: ADME, cell-based, Hepatocyte
Cytochrome P450 3A4 = Cytochrome P450 3A4 (Homo sapiens, UniProt P08684); test: Inhibition of CYP3A4 in human liver microsomes using midazolam as substrate preincubated with compound followed by substrate addition measured after 5 mins in presence of NADPH by LC-MS/MS analysis; assay type: ADME, Microsome
Cytochrome P450 2C9 = Cytochrome P450 2C9 (Homo sapiens, UniProt P11712); test: Inhibition of CYP2C9 in human liver microsomes using diclofenac as substrate preincubated with compound followed by substrate addition measured after 10 mins in presence of NADPH by LC-MS/MS analysis; assay type: ADME, Microsome
[14] = Tmax in C57BL/6 mouse at 1 mg/kg, iv measured for 0.5 to 12 htr by LC-MS/MS analysis; assay type: ADME, organism-based; conditions: in vivo, time 0.5-12 hrs
[15] = MRT (0 to t) in C57BL/6 mouse at 1 mg/kg, iv measured for 0.5 to 12 htr by LC-MS/MS analysis; assay type: ADME, organism-based; conditions: in vivo, time 0.5-12 hrs
[16] = Volume of distribution at steady state in C57BL/6 mouse at 1 mg/kg, iv measured for 0.5 to 12 htr by LC-MS/MS analysis; assay type: ADME, organism-based; conditions: in vivo, time 0.5-12 hrs, read-out: Vdss
[17] = Cmax in C57BL/6 mouse at 10 mg/kg, po measured for 0.5 to […] htr by LC-MS/MS analysis; assay type: ADME, organism-based; conditions: in vivo, time 0.5-12 hrs
[18] = Half life in C57BL/6 mouse at 10 mg/kg, po measured for 0.5 to 12 htr by LC-MS/MS analysis; assay type: ADME, organism-based; conditions: in vivo, time 0.5-12 hrs
[19] = Metabolic stability in human liver microsomes assessed as half life preincubated for 5 mins followed by NADPH addition by LC-MS/MS analysis; assay type: ADME, Microsome
[20] = Metabolic stability in mouse liver microsomes assessed as half life preincubated for 5 mins followed by NADPH addition by LC-MS/MS analysis; assay type: ADME, Microsome
[21] = Metabolic stability in human liver microsomes assessed as intrinsic clearance preincubated for 5 mins followed by NADPH addition by LC-MS/MS analysis; assay type: ADME, Microsome; conditions: read-out: CLH
[22] = Metabolic stability in mouse liver microsomes assessed as intrinsic clearance preincubated for 5 mins followed by NADPH addition by LC-MS/MS analysis; assay type: ADME, Microsome; conditions: read-out: CLH
[23] = Metabolic stability in mouse liver microsomes assessed as intrinsic clearance in microsome measured per mg protein preincubated for 5 mins followed by NADPH addition by LC-MS/MS analysis; assay type: ADME; conditions: read-out: CLH
[24] = Metabolic stability in dog liver microsomes assessed as intrinsic clearance in microsome measured per mg protein preincubated for 5 mins followed by NADPH addition by LC-MS/MS analysis; assay type: ADME, Canis lupus familiaris; conditions: read-out: CLH
[25] = Toxicity in BALB/c mouse xenografted with human K562 cells assessed as change in body weight at 10 to 20 mg/kg, IG for 11 days treated on every 3 to 4 days; assay type: organism-based; conditions: in vivo, po, 264 h, dose 10-20 mg/kg, time 11 day
[26] = Toxicity in BALB/c mouse xenografted with human K562 cells assessed as adverse effects at 10 to 20 mg/kg, IG for 11 days treated on every 3 to 4 days; assay type: organism-based; conditions: in vivo, po, 264 h, dose 10-20 mg/kg, time 11 day
HEK-293T = test: Cytotoxicity against HEK293T cells by CCK8 assay; assay type: toxicity, cell-based; conditions: human, dose 0.1-30 µM
[27] = Cytotoxicity against HEK293T cells assessed as cell viability at 30 uM by CCK8 assay relative to control; assay type: toxicity, cell-based, HEK-293T; conditions: human, read-out: Activity
[28] = Effect on mitochondrial membrane integrity in HEK293T cells at 10 uM incubated for 24 hrs by JC-1 dye based analysis; assay type: toxicity, cell-based; conditions: human, hek-293t
[29] = Effect on F-actin cytoskeleton in HEK293T cells at 10 uM incubated for 24 hrs by immunofluorescence based analysis; assay type: toxicity, cell-based; conditions: human, hek-293t
[30] = Acute hematopoietic toxicity in mouse assessed as effect on biochemical indices at 500 mg/kg, IG qd treated for 7 days; assay type: organism-based; conditions: in vivo, po, 168 h, time 7 day
[31] = Acute toxicity in mouse assessed as body weight change at 500 mg/kg, IG qd treated for 7 days; assay type: organism-based; conditions: in vivo, po, 168 h, time 7 day
[32] = Acute toxicity in mouse assessed as damage in heart at 500 mg/kg, IG qd treated for 7 days by H and E staining based analysis; assay type: organism-based; conditions: in vivo, po, 168 h, time 7 day
[33] = Acute toxicity in mouse assessed as damage in spleen at 500 mg/kg, IG qd treated for 7 days by H and E staining based analysis; assay type: organism-based; conditions: in vivo, po, 168 h, time 7 day
[34] = Acute toxicity in mouse assessed as damage in lung at 500 mg/kg, IG qd treated for 7 days by H and E staining based analysis; assay type: organism-based; conditions: in vivo, po, 168 h, time 7 day
A549 = test: cells; conditions: Homo sapiens
HL-60 = test: cells; conditions: Homo sapiens
K562 = test: cells; conditions: Homo sapiens

Chain of Glycogen synthase kinase-3 beta (Homo sapiens) (P49841 whole entry, looked up): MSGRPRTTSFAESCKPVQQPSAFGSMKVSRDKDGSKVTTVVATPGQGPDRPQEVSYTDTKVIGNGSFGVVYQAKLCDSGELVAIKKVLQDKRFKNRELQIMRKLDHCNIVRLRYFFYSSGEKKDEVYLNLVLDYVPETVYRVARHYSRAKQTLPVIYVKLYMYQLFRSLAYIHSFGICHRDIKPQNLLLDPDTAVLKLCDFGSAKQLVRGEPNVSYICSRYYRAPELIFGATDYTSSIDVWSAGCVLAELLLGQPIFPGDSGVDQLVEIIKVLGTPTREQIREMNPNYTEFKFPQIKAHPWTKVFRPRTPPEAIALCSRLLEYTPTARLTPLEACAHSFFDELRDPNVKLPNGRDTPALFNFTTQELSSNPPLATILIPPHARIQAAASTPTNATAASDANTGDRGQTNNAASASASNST
Chain of Serine/threonine-protein kinase MRCK alpha (Homo sapiens) (Q5VT25 whole entry): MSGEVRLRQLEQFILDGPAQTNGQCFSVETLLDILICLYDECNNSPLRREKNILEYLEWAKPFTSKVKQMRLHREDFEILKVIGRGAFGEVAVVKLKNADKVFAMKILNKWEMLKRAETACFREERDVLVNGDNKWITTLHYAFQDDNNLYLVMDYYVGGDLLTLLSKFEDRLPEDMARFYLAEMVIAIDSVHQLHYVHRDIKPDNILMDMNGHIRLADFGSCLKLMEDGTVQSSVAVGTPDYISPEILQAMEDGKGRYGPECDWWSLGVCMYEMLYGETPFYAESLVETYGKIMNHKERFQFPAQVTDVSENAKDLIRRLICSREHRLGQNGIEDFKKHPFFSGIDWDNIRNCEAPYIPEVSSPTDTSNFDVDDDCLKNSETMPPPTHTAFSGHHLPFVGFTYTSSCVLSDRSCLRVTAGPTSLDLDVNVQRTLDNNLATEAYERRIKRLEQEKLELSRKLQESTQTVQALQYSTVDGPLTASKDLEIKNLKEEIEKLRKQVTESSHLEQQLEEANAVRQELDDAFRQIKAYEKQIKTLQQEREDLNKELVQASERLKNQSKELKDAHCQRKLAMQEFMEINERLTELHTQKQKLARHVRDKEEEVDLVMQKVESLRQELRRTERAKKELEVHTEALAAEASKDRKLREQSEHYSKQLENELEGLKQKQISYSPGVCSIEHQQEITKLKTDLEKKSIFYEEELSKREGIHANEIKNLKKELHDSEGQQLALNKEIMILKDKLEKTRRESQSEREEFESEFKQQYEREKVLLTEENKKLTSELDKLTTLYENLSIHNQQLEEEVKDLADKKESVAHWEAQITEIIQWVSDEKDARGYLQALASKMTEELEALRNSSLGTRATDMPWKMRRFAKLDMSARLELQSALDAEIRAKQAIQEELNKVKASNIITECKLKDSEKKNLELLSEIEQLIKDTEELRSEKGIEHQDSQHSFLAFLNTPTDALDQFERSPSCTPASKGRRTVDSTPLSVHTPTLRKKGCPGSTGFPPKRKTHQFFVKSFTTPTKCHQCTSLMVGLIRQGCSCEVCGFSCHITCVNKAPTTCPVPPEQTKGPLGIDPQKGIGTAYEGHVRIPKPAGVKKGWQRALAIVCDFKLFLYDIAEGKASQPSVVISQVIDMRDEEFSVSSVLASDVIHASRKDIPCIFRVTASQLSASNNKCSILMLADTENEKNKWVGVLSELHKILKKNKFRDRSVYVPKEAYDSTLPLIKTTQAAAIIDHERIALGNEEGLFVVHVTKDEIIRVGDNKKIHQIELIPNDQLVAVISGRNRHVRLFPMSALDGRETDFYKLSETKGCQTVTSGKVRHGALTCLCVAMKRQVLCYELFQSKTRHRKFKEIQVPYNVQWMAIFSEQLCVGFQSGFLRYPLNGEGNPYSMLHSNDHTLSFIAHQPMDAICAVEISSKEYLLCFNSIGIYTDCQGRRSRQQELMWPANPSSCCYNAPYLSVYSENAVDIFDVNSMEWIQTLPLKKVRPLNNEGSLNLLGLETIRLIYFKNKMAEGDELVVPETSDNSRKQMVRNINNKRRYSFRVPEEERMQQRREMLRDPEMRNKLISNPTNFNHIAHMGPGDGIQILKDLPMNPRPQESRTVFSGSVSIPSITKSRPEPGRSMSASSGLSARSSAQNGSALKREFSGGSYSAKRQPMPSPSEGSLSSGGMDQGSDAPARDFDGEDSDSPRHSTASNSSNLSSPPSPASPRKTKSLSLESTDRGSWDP
Chain of TRAF2 and NCK-interacting protein kinase (Homo sapiens) (Q9UKE5 whole entry, looked up): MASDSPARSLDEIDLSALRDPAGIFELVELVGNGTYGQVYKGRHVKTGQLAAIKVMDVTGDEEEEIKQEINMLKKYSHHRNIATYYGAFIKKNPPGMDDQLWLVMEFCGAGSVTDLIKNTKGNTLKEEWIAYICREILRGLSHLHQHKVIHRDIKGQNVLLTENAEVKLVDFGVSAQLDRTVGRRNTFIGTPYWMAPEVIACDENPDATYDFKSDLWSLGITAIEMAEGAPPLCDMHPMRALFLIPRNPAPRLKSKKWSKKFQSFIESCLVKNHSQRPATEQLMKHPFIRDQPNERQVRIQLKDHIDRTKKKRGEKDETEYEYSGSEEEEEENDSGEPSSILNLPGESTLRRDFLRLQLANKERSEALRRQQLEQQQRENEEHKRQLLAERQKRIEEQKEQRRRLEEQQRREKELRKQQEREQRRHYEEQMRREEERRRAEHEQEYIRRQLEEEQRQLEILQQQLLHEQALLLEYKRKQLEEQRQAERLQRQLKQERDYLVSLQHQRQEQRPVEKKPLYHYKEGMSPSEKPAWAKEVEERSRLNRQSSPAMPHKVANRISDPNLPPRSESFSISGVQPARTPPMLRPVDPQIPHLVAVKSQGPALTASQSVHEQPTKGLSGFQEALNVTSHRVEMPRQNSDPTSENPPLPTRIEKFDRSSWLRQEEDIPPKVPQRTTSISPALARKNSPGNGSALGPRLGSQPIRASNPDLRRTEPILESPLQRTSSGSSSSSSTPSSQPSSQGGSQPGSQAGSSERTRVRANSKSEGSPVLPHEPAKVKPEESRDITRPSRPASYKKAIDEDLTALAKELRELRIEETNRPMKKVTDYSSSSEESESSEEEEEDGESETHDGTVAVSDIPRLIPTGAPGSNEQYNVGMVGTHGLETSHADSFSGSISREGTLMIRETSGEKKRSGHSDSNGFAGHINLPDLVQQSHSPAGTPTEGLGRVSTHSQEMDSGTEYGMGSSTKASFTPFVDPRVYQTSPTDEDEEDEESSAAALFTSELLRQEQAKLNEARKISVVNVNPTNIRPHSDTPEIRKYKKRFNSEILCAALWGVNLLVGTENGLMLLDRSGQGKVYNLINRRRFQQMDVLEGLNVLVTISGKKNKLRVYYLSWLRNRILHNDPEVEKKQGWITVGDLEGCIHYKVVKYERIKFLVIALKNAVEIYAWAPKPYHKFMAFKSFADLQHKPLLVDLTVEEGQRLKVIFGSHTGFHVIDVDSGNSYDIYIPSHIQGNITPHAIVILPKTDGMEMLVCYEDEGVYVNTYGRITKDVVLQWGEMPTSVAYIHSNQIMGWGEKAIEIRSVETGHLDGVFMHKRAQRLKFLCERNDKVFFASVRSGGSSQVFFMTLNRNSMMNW
Chain of Calcium/calmodulin-dependent protein kinase kinase 1 (Homo sapiens) (Q8N5S9 whole entry, looked up): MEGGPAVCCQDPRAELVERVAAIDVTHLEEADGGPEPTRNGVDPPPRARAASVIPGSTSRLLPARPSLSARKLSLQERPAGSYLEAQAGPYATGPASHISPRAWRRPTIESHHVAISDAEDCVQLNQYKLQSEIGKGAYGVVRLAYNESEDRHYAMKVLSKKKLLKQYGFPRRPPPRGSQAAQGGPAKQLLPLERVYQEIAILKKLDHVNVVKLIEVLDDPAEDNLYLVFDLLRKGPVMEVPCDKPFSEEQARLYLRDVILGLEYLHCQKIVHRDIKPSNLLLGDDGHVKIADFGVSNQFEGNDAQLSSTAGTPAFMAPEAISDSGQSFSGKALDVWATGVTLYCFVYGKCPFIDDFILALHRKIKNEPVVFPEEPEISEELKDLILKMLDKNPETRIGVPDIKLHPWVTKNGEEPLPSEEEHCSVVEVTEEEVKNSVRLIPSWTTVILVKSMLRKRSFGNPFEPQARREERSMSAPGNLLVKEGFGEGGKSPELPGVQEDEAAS
Chain of Cyclin-dependent kinase 6 (Homo sapiens) (Q00534 whole entry): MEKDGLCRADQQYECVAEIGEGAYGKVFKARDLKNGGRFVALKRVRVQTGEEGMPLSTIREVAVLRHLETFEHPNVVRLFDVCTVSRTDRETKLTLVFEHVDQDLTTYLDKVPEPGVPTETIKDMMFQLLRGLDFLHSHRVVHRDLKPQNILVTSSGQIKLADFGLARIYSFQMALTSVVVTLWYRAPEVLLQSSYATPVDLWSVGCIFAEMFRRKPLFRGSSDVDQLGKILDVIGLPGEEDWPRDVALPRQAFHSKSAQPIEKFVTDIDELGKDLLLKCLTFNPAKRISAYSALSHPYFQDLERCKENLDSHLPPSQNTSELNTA

CC[C@@H]1C(=O)N(C)c2cnc(Nc3cc(N4CCN(C)CC4)cc(Cl)c3OCCCO)nc2N1C1CCCC1
IC50 [1]: > 10000 nM
inhibition [2]: 100%
Activity [3]: 48%
Activity [4]: 11%
Activity [5]: 129%
Activity [6]: 112%
Activity (Homo sapiens [7]): 108%
Activity [8]: 103%
Activity [9]: 77%
Activity [10]: 70%
Activity [11]: 70%
Activity (Homo sapiens [12]): 54%
Stability [13]: Stable
IC50 (Cytochrome P450 3A4): > 10000 nM
IC50 (Cytochrome P450 2C9): 9600 nM
Tmax [14]: 4.98 min
MRT last [15]: 39.6 min
Vd [16]: 3.6 L/kg
Cmax [17]: 328 ng/mL
half-life [18]: 72 min
half-life [19]: 30.3 min
half-life [20]: 16.6 min
CLint scaled [21]: 85.6 mL/min/kg
CLint scaled [22]: 829 mL/min/kg
microsomal CLint [23]: 210 µL/min/mg
microsomal CLint [24]: 190 µL/min/mg
Activity [25]: Non-toxic
Activity [26]: Non-toxic
Activity (HEK-293T): Dose-dependent-effect
viability at 30 µM [27]: 68%
Activity [28]: Non-toxic
Activity [29]: Non-toxic
Activity [30]: Non-toxic
Activity [31]: Non-toxic
Activity [32]: Non-toxic
Activity [33]: Non-toxic
Activity [34]: Non-toxic
IC50 (A549): 32 nM
IC50 (HL-60): 59 nM
IC50 (K562): 0.08 nM
